Reference: patent US9561228B2 (Celgene Avilomics Research, Inc., priority 2013, dated 2017)
pEC50, pIC50: −log10 of the molar value.

Tests used:
[1] = target: T1, MEK1 activated ERK1 (Homo sapiens, UniProt P27361); assay: Omnia continuous-read kinase assay for potency against MEK1 activated ERK1; format: biochemical; conditions: MEK1 activated ERK1, ATP at KM; read-out: ERK1 Omnia WT ATP KM IC50
T1 construct: purchased Millipore (Billerica, Mass.) 14-439-K
Procedure, shortened: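 Apparent IC50 came from initial reaction slopes (RFU vs time) plotted against log inhibitor with a variable-slope fit. Reactions were started with ERK1 (4 nM final) added to 50 μM ATP, roughly at its appKM, and 10 μM Sox-conjugated ST17 peptide in 20 mM Tris pH 7.5, 5 mM MgCl2. Fluorescence was monitored every 71 seconds.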

[2] = test system: ERK1/ERK2; assay: Measurement of Erk occupancy with biotinylated covalent probe I-299 (HT-29); format: cell-based; conditions: HT-29 cells
Description: Measurement of Erk Occupancy with Biotinylated Covalent Probe
This experiment measured occupancy of the ERK1/ERK2 target by compounds according to the invention. This experiment was conducted using the Mesoscale Discovery test kit (Cat. # N45107B). One day before the assay, cells were split and added at 50,000 cells per well to a flat-bottom 96 well plate in 200 μl of growth medium. The next day, the medium was discarded, 100 μl medium containing test compound was added, and the plate was incubated at 37° C. for 120 minutes. The plate was rinsed once with PBS, and 50 μl lysis buffer with test compound was added. The plate was incubated at 4° C. for 30 min, and 30 μl of lysate was transferred to a plate to capture total and phosphor-Erk. Biotinylated probe 1-299 was diluted in lysis buffer and added to each well to a final concentration of 0.2 μM. The plate was incubated for 2 hr under constant shaking at room temperature. The plate was washed 3 times with MSD wash buffer. To detect the biotinylated probe bonding, tagged streptavidin was added (Mesoscale Discovery, Cat. # R32AD-1) at 1 μg/ml, 25 μl/well, followed by a 60 min incubation under shaking. The plate was washed 3 times, 150 μl MSD Read Buffer (Mesoscale Discovery, Cat. R61TX) was added and the plate was read in a plate reader manufactured by MSD. Percent occupancy by test compound at Erk was calculated by comparing the chemiluminescence readings from treated cells as compared to the chemiluminescence readings in untreated controls (which are defined as 100% probe bonding or 0% test compound occupancy). The amount of covalent probe signal divided by the amount of ERK signal for samples with no test compound treatment represents the maximum probe signal (MPS). In samples treated with test compound prior to covalent probe, the ratio of probe signal to ERK signal (the test probe signal, TPS) was reduced by the degree of target occupancy by the test compound which blocks covalent probe binding. The difference between the MPS and the TPS, divided by the MPS gave the target occupancy by the test compound. This ratio was then expressed as a percent occupancy. Results from this assay are provided in Table A below under the column “Occupancy EC50 (nM) HT-29.”

T1 sequence (P27361 whole entry): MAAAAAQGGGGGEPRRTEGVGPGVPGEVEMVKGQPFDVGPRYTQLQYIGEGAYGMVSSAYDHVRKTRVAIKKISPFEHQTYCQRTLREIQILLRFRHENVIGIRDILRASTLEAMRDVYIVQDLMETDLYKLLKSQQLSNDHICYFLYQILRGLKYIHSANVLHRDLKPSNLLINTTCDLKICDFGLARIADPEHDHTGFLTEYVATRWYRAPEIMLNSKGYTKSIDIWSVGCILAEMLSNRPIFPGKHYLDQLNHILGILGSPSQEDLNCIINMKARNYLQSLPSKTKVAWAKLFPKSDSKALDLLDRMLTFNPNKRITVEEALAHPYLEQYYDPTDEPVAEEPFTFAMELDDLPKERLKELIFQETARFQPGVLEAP

| pIC50 [1] | pEC50 [2] | SMILES |
| --- | --- | --- |
| 6.30 to 7.00 | – | C=CC(=O)Nc1ccccc1Nc1nc(N[C@H]2CCN(C(C)=O)C2)ncc1C(F)(F)F [Compound I-56, (S)—N-(2-((2-((1-Acetylpyrrolidin-3-yl)amino)-5-(trifluoromethyl)pyrimidin-4-yl)amino)phenyl)acrylamide] |
| 6.00 to 6.30 | – | C=CC(=O)Nc1ccccc1Nc1nc(Nc2cc(F)ccc2C)ncc1C(F)(F)F [Compound I-285, N-(2-((2-((5-Fluoro-2-methylphenyl)amino)-5-(trifluoromethyl)pyrimidin-4-yl)amino)phenyl)acrylamide] |
| 6.00 to 6.30 | – | C=CC(=O)Nc1cc(C)ccc1Nc1nc(Nc2ccnc(F)c2)ncc1C(F)(F)F [Compound I-288, N-(2-((2-((2-Fluoropyridin-4-yl)amino)-5-(trifluoromethyl)pyrimidin-4-yl)amino)-5-methylphenyl)acrylamide] |
| 6.30 to 7.00 | – | C=CC(=O)Nc1ccccc1Nc1nc(N[C@H]2CCN(C(=O)CO)C2)ncc1C(F)(F)F [Compound I-57, (S)—N-(2-((2-((1-(2-Hydroxyacetyl)pyrrolidin-3-yl)amino)-5-(trifluoromethyl)pyrimidin-4-yl)amino)phenyl)acrylamide] |
| – | > 7.00 | C=CC(=O)Nc1ccccc1Nc1nc(Nc2cc(C(N)=O)ccc2C)ncc1C(F)(F)F [Compound I-68, 3-(4-(2-Acrylamidophenylamino)-5-(trifluoromethyl)pyrimidin-2-ylamino)-4-methylbenzamide] |
